According to PubChem BioAssay AID1963423 (Molecular Pharmacology Branch, DTP, NCI, 2024):

System: 439559-082-T-J2-PDC complex spheroid growth
Assay: Anticancer human tumor 439559-082-T-J2-PDC patient-derived colon adenocarcinoma cell line growth inhibition [Asc]
Details: for IC50: curve of first compound; for viability, T/C: stronger effect = lower value
In short: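 Tumor cells were grown as complex spheroids with human endothelial cells (HUVEC) and human mesenchymal stem cells as stroma. Agents were tested alone and in combination, in half-log steps down from the clinical Cmax, or from 10 microM where Cmax was unknown.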

[1] = second compound 0.1 µM, first compound 0.0316 µM
[2] = second compound 0.1 µM, first compound 0.1 µM
[3] = second compound 0.1 µM, first compound 0.316 µM
[4] = second compound 0.1 µM, first compound 1 µM
[5] = second compound 0.316 µM, first compound 0.0316 µM
[6] = second compound 0.316 µM, first compound 0.1 µM
[7] = second compound 0.316 µM, first compound 0.316 µM
[8] = second compound 0.316 µM, first compound 1 µM
[9] = second compound 1 µM, first compound 0.0316 µM
[10] = second compound 1 µM, first compound 0.1 µM
[11] = second compound 1 µM, first compound 0.316 µM
[12] = second compound 1 µM, first compound 1 µM
[13] = second compound 3.16 µM, first compound 0.0316 µM
[14] = second compound 3.16 µM, first compound 0.1 µM
[15] = second compound 3.16 µM, first compound 0.316 µM
[16] = second compound 3.16 µM, first compound 1 µM
[17] = second compound 10 µM, first compound 0.0316 µM
[18] = second compound 10 µM, first compound 0.1 µM
[19] = second compound 10 µM, first compound 0.316 µM
[20] = second compound 10 µM, first compound 1 µM
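Note: spheroids exposed to agents for 7 days starting day 3 after seeding.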
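Throughout, for viability, T/C: percent of DMSO vehicle control viability with 100% = vehicle.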

Compound `C#Cc1c(F)ccc2cc(O)cc(-c3ncc4c(N5CC6CCC(C5)N6)nc(OCC56CCCN5CC(F)C6)nc4c3F)c12` (stereo not given) + Cc1c(S(C)(=O)=O)c(-c2cc(F)cc(N3CCN(c4ccc(NS(=O)(=O)c5ccc(NC(CCN6CCC(C(=O)OCCCP(=O)(O)O)CC6)CSc6ccccc6)c(S(=O)(=O)C(F)(F)F)c5)cc4)CC3)c2)c(-c2ccc(Cl)cc2)n1C(C)C has an IC50 (second compound 0.1 µM) of 833 nM, an IC50 (second compound 0.316 µM) of 620 nM and an IC50 (second compound 1 µM) of 679 nM. It also gave an IC50 (second compound 3.16 µM) of 188 nM, an IC50 (second compound 10 µM) of 55.5 nM and a viability, T/C [1] of 78.3%. The viability, T/C [2] was 77.3%, the viability, T/C [3] was 61.7% and the viability, T/C [4] was 47%. It also gave a viability, T/C (second compound 0.1 µM, first compound 3.16 µM) of 46.3%, a viability, T/C (second compound 0.1 µM, first compound 10 µM) of 37.1% and a viability, T/C [5] of 79%. It also gave a viability, T/C [6] of 75.1%, a viability, T/C [7] of 57.5% and a viability, T/C [8] of 43%. The viability, T/C (second compound 0.316 µM, first compound 3.16 µM) was 40.9%, the viability, T/C (second compound 0.316 µM, first compound 10 µM) was 31.6% and the viability, T/C [9] was 72.6%. The viability, T/C [10] was 66.4%, the viability, T/C [11] was 55.1% and the viability, T/C [12] was 44.1%. The viability, T/C (second compound 1 µM, first compound 3.16 µM) was 41.9%, the viability, T/C (second compound 1 µM, first compound 10 µM) was 27.4% and the viability, T/C [13] was 67.2%. It also gave a viability, T/C [14] of 55%, a viability, T/C [15] of 45.6% and a viability, T/C [16] of 34.6%. It also gave a viability, T/C (second compound 3.16 µM, first compound 3.16 µM) of 32.7%, a viability, T/C (second compound 3.16 µM, first compound 10 µM) of 22.5% and a viability, T/C [17] of 56.7%. For the same compound, the viability, T/C [18] was 41.2%, the viability, T/C [19] was 36.5% and the viability, T/C [20] was 24.4%. The viability, T/C (second compound 10 µM, first compound 3.16 µM) was 19.3% and the viability, T/C (second compound 10 µM, first compound 10 µM) was 14.9%.

`CNC(C)C(=O)NC1CN(S(=O)(=O)c2cccc(S(=O)(=O)N3CCC4CCC(C(=O)NC(c5ccccc5)c5ccccc5)N4C(=O)C(NC(=O)C(C)NC)C3)c2)CCC2CCC(C(=O)NC(c3ccccc3)c3ccccc3)N2C1=O` (stereo not given) + Cc1c(S(C)(=O)=O)c(-c2cc(F)cc(N3CCN(c4ccc(NS(=O)(=O)c5ccc(NC(CCN6CCC(C(=O)OCCCP(=O)(O)O)CC6)CSc6ccccc6)c(S(=O)(=O)C(F)(F)F)c5)cc4)CC3)c2)c(-c2ccc(Cl)cc2)n1C(C)C gave an IC50 (second compound 0.1 µM) of over 1000 nM, an IC50 (second compound 0.316 µM) of over 1000 nM and an IC50 (second compound 1 µM) of over 1000 nM. It also gave an IC50 (second compound 3.16 µM) of over 1000 nM, an IC50 (second compound 10 µM) of over 1000 nM and a viability, T/C (second compound 0.1 µM, first compound 0.00316 µM) of 102%. It also gave a viability, T/C (second compound 0.1 µM, first compound 0.01 µM) of 111%, a viability, T/C [1] of 110% and a viability, T/C [2] of 88.2%. It also gave a viability, T/C [3] of 88%, a viability, T/C [4] of 86.3% and a viability, T/C (second compound 0.316 µM, first compound 0.00316 µM) of 97.9%. For the same compound, the viability, T/C (second compound 0.316 µM, first compound 0.01 µM) was 105%, the viability, T/C [5] was 108% and the viability, T/C [6] was 85%. It also gave a viability, T/C [7] of 83%, a viability, T/C [8] of 79.8% and a viability, T/C (second compound 1 µM, first compound 0.00316 µM) of 97.5%. For the same compound, the viability, T/C (second compound 1 µM, first compound 0.01 µM) was 103%, the viability, T/C [9] was 104% and the viability, T/C [10] was 87.1%. For the same compound, the viability, T/C [11] was 93.9%, the viability, T/C [12] was 80% and the viability, T/C (second compound 3.16 µM, first compound 0.00316 µM) was 91.2%. The viability, T/C (second compound 3.16 µM, first compound 0.01 µM) was 99.2%, the viability, T/C [13] was 102% and the viability, T/C [14] was 71%. It also gave a viability, T/C [15] of 84%, a viability, T/C [16] of 69.7% and a viability, T/C (second compound 10 µM, first compound 0.00316 µM) of 75.5%. It also gave a viability, T/C (second compound 10 µM, first compound 0.01 µM) of 80.4%, a viability, T/C [17] of 90.6% and a viability, T/C [18] of 72.8%. For the same compound, the viability, T/C [19] was 64.7% and the viability, T/C [20] was 66.1%.

`Cc1nc(N2CCC3(CC2)COC(C)C3N)c(CO)nc1Sc1ccnc(N)c1Cl` (stereo not given) + Cc1c(S(C)(=O)=O)c(-c2cc(F)cc(N3CCN(c4ccc(NS(=O)(=O)c5ccc(NC(CCN6CCC(C(=O)OCCCP(=O)(O)O)CC6)CSc6ccccc6)c(S(=O)(=O)C(F)(F)F)c5)cc4)CC3)c2)c(-c2ccc(Cl)cc2)n1C(C)C was tested, and the IC50 (second compound 0.1 µM) was over 3000 nM, the IC50 (second compound 0.316 µM) was over 3000 nM and the IC50 (second compound 1 µM) was over 3000 nM. It also gave an IC50 (second compound 3.16 µM) of over 3000 nM, an IC50 (second compound 10 µM) of 2750 nM and a viability, T/C (second compound 0.1 µM, first compound 0.00949 µM) of 109%. It also gave a viability, T/C (second compound 0.1 µM, first compound 0.03 µM) of 115%, a viability, T/C (second compound 0.1 µM, first compound 0.0949 µM) of 100% and a viability, T/C (second compound 0.1 µM, first compound 0.3 µM) of 82.6%. It also gave a viability, T/C (second compound 0.1 µM, first compound 0.949 µM) of 86.5%, a viability, T/C (second compound 0.1 µM, first compound 3 µM) of 73.4% and a viability, T/C (second compound 0.316 µM, first compound 0.00949 µM) of 96.4%. It also gave a viability, T/C (second compound 0.316 µM, first compound 0.03 µM) of 107%, a viability, T/C (second compound 0.316 µM, first compound 0.0949 µM) of 103% and a viability, T/C (second compound 0.316 µM, first compound 0.3 µM) of 84.5%. For the same compound, the viability, T/C (second compound 0.316 µM, first compound 0.949 µM) was 77.9%, the viability, T/C (second compound 0.316 µM, first compound 3 µM) was 72.4% and the viability, T/C (second compound 1 µM, first compound 0.00949 µM) was 89.5%. For the same compound, the viability, T/C (second compound 1 µM, first compound 0.03 µM) was 97.5%, the viability, T/C (second compound 1 µM, first compound 0.0949 µM) was 98.2% and the viability, T/C (second compound 1 µM, first compound 0.3 µM) was 76.4%. It also gave a viability, T/C (second compound 1 µM, first compound 0.949 µM) of 63%, a viability, T/C (second compound 1 µM, first compound 3 µM) of 70.4% and a viability, T/C (second compound 3.16 µM, first compound 0.00949 µM) of 84%. The viability, T/C (second compound 3.16 µM, first compound 0.03 µM) was 95.7%, the viability, T/C (second compound 3.16 µM, first compound 0.0949 µM) was 92.1% and the viability, T/C (second compound 3.16 µM, first compound 0.3 µM) was 63.6%. It also gave a viability, T/C (second compound 3.16 µM, first compound 0.949 µM) of 65.5%, a viability, T/C (second compound 3.16 µM, first compound 3 µM) of 56.7% and a viability, T/C (second compound 10 µM, first compound 0.00949 µM) of 74.3%. For the same compound, the viability, T/C (second compound 10 µM, first compound 0.03 µM) was 75%, the viability, T/C (second compound 10 µM, first compound 0.0949 µM) was 72.7% and the viability, T/C (second compound 10 µM, first compound 0.3 µM) was 60.2%. It also gave a viability, T/C (second compound 10 µM, first compound 0.949 µM) of 60.3% and a viability, T/C (second compound 10 µM, first compound 3 µM) of 49.1%.
